Experiments:
PARP = PARP cleavage assay, TNF plus guggulsterone; format: cell-based, human; conditions: KBM-5, serum starved 24 hours; TNF in combination with guggulsterone
Protocol: PARP cleavage assay: For detection of cleavage products of PARP, whole-cell extracts were prepared by subjecting the guggulsterone-treated cells to lysis in lysis buffer (20 mM Tris, pH 7.4; 250 mM NaCI; 2 mM EDTA, pH 8.0; 0.1% Triton-X 100; 0.01 μg/ml aprotinin; 0.005 μg/ml leupeptin; 0.4 mM PMSF; and 4 mM NaVO4). Lysates will be spun at 14000 rpm for 10 min to remove insoluble material, resolved by 10% SDS PAGE, and probed with PARP antibodies. PARP is cleaved from the 116-kDa intact protein into 85-kDa and […] peptide products. To detect cleavage products of procaspase-3 and procaspase-9, whole-cell extracts will be resolved by 10% SDS PAGE and probed with appropriate antibodies.

IKK = assay: Direct inhibition of immunoprecipitated IKK, kinase assay; format: biochemical, human; conditions: 50 μM; immune complex treated 30 min at 30° C.
Protocol: IKK Assay: To determine the effect of guggulsterone on TNF-induced IKK activation, IKK was analyzed by a method essentially as described previously (Shishodia et al., 2003). Briefly, IKK complex was precipitated from whole-cell extracts with antibody to IKKα and IKKβ, assayed in kinase assay using GST-IκBα (1-54) as a substrate, and resolved on 10% polyacrylamide gel; the radioactive bands were visualized using a PHOSPHORIMAGER™. To determine the total amounts of IKKα and IKKβ in each sample, 30 μg of the whole-cell extract protein was resolved on a 7.5% polyacrylamide gel and analyzed by Western blot using antibody against IKKα and IKKβ.

NF-κB = assay: RANKL-induced NF-κB activation by EMSA in RAW 264.7 cells; format: cell-based, mouse
U937 cells = assay: Annexin V and TUNEL assays; format: cell-based, human
Protocol: Annexin V Assay. One of the early indicators of apoptosis is the rapid translocation and accumulation of the membrane phospholipid phosphatidylserine from the cell's cytoplasmic interface to the extracellular surface. This loss of membrane asymmetry can be detected using the binding properties of annexin V. To detect apoptosis, annexin V antibody conjugated with the fluorescent dye FITC was used. Briefly, 1×10^6 cells were pretreated with 10 μM guggulsterone for various time points and then subjected to annexin V staining. Cells were washed, stained with FITC-conjugated anti-annexin V antibody, and then analyzed with a flow cytometer (FACSCalibur; BD Biosciences). TUNEL Assay. Apoptosis was also assessed by the terminal deoxynucleotidyl transferase-mediated deoxyuridine triphosphate nick end-labeling (TUNEL) method, which examines DNA strand breaks that occur during apoptosis, using an in situ cell death detection reagent (Roche Molecular Biochemicals, Mannheim, Germany). Assays were performed using 5×10^5 cells that were incubated with 10 μM guggulsterone for 24 h and then fixed with 4% paraformaldehyde, and permeabilized with 0.1% Triton-X 100 in 0.1% sodium citrate. After being washed, the cells were incubated with reaction mixture for 60 min at 37° C. Stained cells were analyzed with a flow cytometer (FACSCalibur).

RAW 264.7 cells = assay: Osteoclast differentiation assay, RANKL-induced; format: cell-based, mouse; conditions: RANKL 5 nM
Protocol: (§1) Osteoclast differentiation assay: […] cells were cultured in 24-well dishes at a density of 1×10^4 cells per well and were allowed to adhere overnight. Medium was then replaced and the cells were treated with 5 nM (˜100 ng/ml) RANKL. At different days, cultures were stained for TRAP expression using an acid phosphatase kit, and the total number of TRAP-positive multinucleated osteoclasts (>3 nuclei) per well were counted.
as §1, with “assay.” for “assay:”, “(100” for “(˜100”, “day 5,” for “different days,”, “expression as described (Shevde et al., 2000)” for “expression”, “(3” for “(>3”

JNK = JNK assay in MKK4 mutants and wild type cells; format: cell-based; conditions: 10 μM
Protocol: JNK kinase assay. To determine the effect of guggulsterone on the kinase activity of JNK, JNK complex from whole-cell extracts was precipitated with antibody against JNK1, followed by treatment with protein A/G-Sepharose beads (Pierce, Rockford, Ill.). After 2 h of incubation, the beads were washed with lysis buffer and then assayed in kinase assay mixture containing 50 mM HEPES (pH 7.4), 20 mM MgCl2, 2 mM dithiothreitol, 20 μCi of [γ-^32P]ATP, 10 μM unlabeled ATP, and 2 μg of substrate GST-c-Jun (1-79). The immunocomplex was incubated at 30° C. for 30 min and then boiled with SDS sample buffer for 5 min. Finally, the protein was resolved on 10% SDS-PAGE, the gel was dried, and the radioactive bands were visualized using the PhosphorImager. To determine the total amount of JNK1 in each sample, whole-cell extracts were subjected to Western blot analysis using anti-JNK1 antibody.

Structure (SMILES): CC=C1C(=O)C[C@H]2[C@@H]3CCC4=CC(=O)CC[C@]4(C)[C@H]3CC[C@]12C [guggulsterone, 4,17(20)-pregnadiene-3,16-dione]
- caspase-induced cleavage of PARP activated by TNF (PARP): enhanced the caspase-induced cleavage of PARP activated by TNF
- phosphorylation of GST IκBα by immunoprecipitated IKK (direct inhibition) (IKK): inhibited the phosphorylation of GST IκBα
- concentration of complete inhibition of RANKL-induced NF-κB activation (NF-κB; RAW 264.7, 10 nM RANKL): 50 µM
- inhibition of RANKL-induced NF-κB, dose dependence (NF-κB; RAW 264.7, 10 nM RANKL): increased with dose
- RANKL-induced NF-κB activation (EMSA) (NF-κB; RAW 264.7, 50 μM, 10 nM RANKL): completely abrogated the RANKL-induced NF-κB activation
- RANKL-induced NF-κB activation (Example 1) (NF-κB; osteoclast precursor cells): inhibits RANKL-induced NF-κB activation
- number of Annexin V and TUNEL positive cells (U937 cells): increased the number of Annexin V and TUNEL positive cells
- number of RANKL-induced osteoclasts (RAW 264.7 cells; 5 days, TRAP): the number of osteoclasts decreased with increasing concentration of GS
- RANKL-induced osteoclastogenesis, GS added 24 h after RANKL (RAW 264.7 cells; GS 5 μM, 5 days): inhibited osteoclastogenesis even when the cells were exposed 24 h after the RANKL treatment
- RANKL-induced osteoclastogenesis, GS added 3 days after RANKL (RAW 264.7 cells; GS 5 μM, 5 days): the inhibitory effect decreased significantly
- RANKL-induced osteoclastogenesis (Example 1) (RAW 264.7 cells; guggulsterone 5 μM, TRAP staining): inhibits RANKL-induced NF-κB activation and osteoclastogenesis
- guggulsterone induced JNK activation, dependence on MKK4 (JNK): MKK4 is required for guggulsterone induced JNK activation

From US20060019907A1, “Guggulsterone: an inhibitor of nuclear factor - kappaB and IkappaBalpha kinase activation and uses thereof” (Research Development Foundation, priority 2004, published 2006)
